The conditions of data set [1]: indomethacin / PVP-K30 at 25° C.; cited from earlier work.
Data set [2] is described as follows: Difference in specific enthalpy and specific entropy (solid solution minus unmixed components) from DSC specific heats. Format: physicochemical. The note with it: indomethacin 2.5% by weight with PVP-K30. The text has this: In practice, there is a lower limit to the temperature at which thermal analysis instruments such as DSC can provide accurate experimental data. As a result, it is not possible to experimentally obtain the necessary specific heats over all temperatures down to absolute zero, but instead they only be evaluated to a minimum temperature, denoted by Tmin. The experimental data can be used to construct a temperature-dependent difference in specific heats, denoted as ΔCP, which is defined as the difference between the specific heat of the solid solution minus the specific heat of the unmixed components in the same ratio, over the temperature range of Tmin to any higher temperature T for which experimental specific heat data is available. This is given by Δ[…]) (29) Because of the thermal analysis instrument limitations, ΔCP provides no data between absolute zero and Tmin, so it is necessary to estimate the values of specific heat differences at temperatures below Tmin. One way to do this is to extrapolate the plot of the experimentally obtained ΔCP vs. the temperature from Tmin to absolute zero. This can be done as follows. • Obtain the experimental values for ΔCP from Tmin up to at least temperature Tat which the solubility of the drug in the polymer is to be evaluated. • Construct an approximating function Δc that is a function of the temperature, which will be used to estimate ΔCP at temperatures lower than Tmin. • Fit the function Δc to the experimental values of ΔCP from Tmin to T using any appropriate method, such as linear or nonlinear regression. • Using the fitted equation for Δc, calculate values of Δc over temperatures from absolute zero to Tmin. These values will be used as substitutes for experimental specific heat difference for temperatures below Tmin. There is no theoretical model or equation that dictates the mathematical form of Δc, and more than one functional form can be chosen. […] One preferred form would be a sum of a constant plus exponentials, such as Δ[…]) (30) where a0, a1 . . . a8 are temperature independent parameters with values that can be determined or fit by nonlinear regression or other methods so Eq. (30) will be a good approximation to the experimental ΔCP vs. temperature data over the experimental temperature range. […] (The value for a4 was not determined because the coefficient multiplying the exponential a3 was zero. […] Using the values Δc calculated from Eq. (34) for temperatures from 0 to […], and the experimental values of ΔCP, values of Δ[…] calculated from Eq. (31) and (32), respectively, for various temperatures. For this combination of indomethacin and PVP-K30, the calculated specific enthalpy values at -10° C. and 25° C.

The conditions of data set [3]: 25° C.
Procedure: The drug indomethacin and the polymer PVP-K30 were taken in various ratios, corresponding to weight percentages of indomethacin in the mixture of 2.5%, 10%, 15%, and 20%. DSC was performed on the pure indomethacin and pure PVP-K30, and the specific heat for each was obtained as a function of the temperature over the range of 220K to 310K. The DSC instrument provided reliable data as low as 220K, which was taken as Tmin. Solid solutions were formed by mixing the drug and polymer in a mortar and pestle, allowing them to stand at 130° C. (403 K) for 5 days, then allowing them to cool to room temperature. DSC was also performed to determine the specific heat of the solid solutions from 220K to 300K. All DSC was performed using a pinhole in the lid and was thus considered open pan, so the specific heats were considered to be obtained at constant pressure. All heating and cooling rates were 5° C. per minute. […]
The entire procedure was repeated for each indomethacin-PVP combinations (2.5% m 10%, 15% and 20% indomethacin by weight), including obtaining the adjustable parameters a0, a1 . . . a8 for each indomethacin/PVP-K30 combination. […] The values of ΔgSS at 25° C. were calculated for each drug-polymer ratio from Eq. (33), and subsequently used to calculate values of ΔgSS/f0.

In the case of `COc1ccc2c(c1)c(CC(=O)O)c(C)n2C(=O)c1ccc(Cl)cc1` [indomethacin], the “interaction parameter χ” value in data set [1] is given as 0.747. For the same molecule, in data set [2] (25° C. (298 K)), the “Δhheat (calculated specific enthalpy difference)” value is 18.347 J/g and the “Δsheat (calculated specific entropy difference)” value is on record as 0.0787 J/K/g. In data set [2] (−10° C. (263 K)), the “Δhheat (calculated specific enthalpy difference)” value is listed as 9.66 J/g and the “Δsheat (calculated specific entropy difference)” value was 0.0479 J/K/g. Moreover, in data set [3], the “maximum stable weight fraction of indomethacin in PVP-K30 solid solution” value is on record as 15 % by weight. Moreover, the “indomethacin weight fraction at minimum of ΔgSS/f0” value in data set [3] (PVP-K30, FIG. 4) is “approximately 0.15”.

Source of the values: US9864847B2, “Method for predicting the solubility of a molecule in a polymer at a given temperature” (priority 2014, dated 2018).
